Values quoted from earlier work, collected in US6284909A, “Preparations of thiophosphites and thiophosphonates” (University of Southern California, priority 2000, dated 2001).
Like-named read-outs stand apart in the source and are kept apart here.

Legend:
[1] = clinical trials
[2] = clinical trials; remark: listed apart in the source
[3] = system: HIV reverse transcriptase
HIV [4] = system: HIV
CMV = conditions: in culture
H9 cells = conditions: at effective antiviral doses
HIV [5] = conditions: U.S. Pat. Nos. 5,072,032 and 5,183,812
[6] = system: Herpesvirus DNA polymerases
[7] = system: DNA polymerase of Cytomegalovirus (CMV)

SMILES | oral bioavailability [1] | inhibition of HIV-1 (HIV-1) | characterization of nephrotoxicity: serum creatinine [2] | characterization of nephrotoxicity: tubulopathy [2] | nephrotoxicity [2] | selectivity of inhibition of isolated HIV RT ([3]; in vitro, vs human DNA polymerases) | IC50 ([3]; isolated HIV RT, in vitro, Thiovir, read-out: IC50) [nM] | antiviral activity against HIV compared to DNA polymerase inhibiting activity (HIV [4]) | antiviral activity against CMV-infected cells (CMV) | toxicity to cultured H9 cells (H9 cells) | effectiveness against HIV, the AIDS virus (HIV [5]) | IC50 ([3]; trisodium phosphonoformate, known, read-out: IC50 (HIV reverse transcriptase)) [nM] | inhibition of several Herpesvirus DNA polymerases [6] | inhibition of the DNA polymerase of Cytomegalovirus (CMV) [7] | inhibition of human DNA polymerases, compared with Thiovir (human DNA polymerases)
O=C(O)P(=O)(O)O [PFA, phosphonoformic acid] | poor | shown to inhibit HIV-1 | increased serum creatinine | acute toxic tubolopathy | reversible nephrotoxity | – | – | – | – | – | – | – | – | – | –
O=C(O)P(O)(O)=S [Thiovir®, trisodium thiophosphonoformate] | – | – | – | – | – | selectively inhibited | ~1000 | unexpectedly high antiviral activity against HIV | exhibited antiviral activity against CMV-infected cells | non-toxic | effective against HIV | – | – | – | –
O=C(O)P(=O)(O)O [foscarnet, Trisodium phosphonoformate] | – | – | – | – | – | – | – | – | – | non-toxic | – | ~1000 | inhibit several Herpesvirus DNA polymerases | inhibit | more inhibitory to human DNA polymerases
